Experimental data as given in patent publication US20150133492A1, “N-desmethyldauricine, A Novel Autophagic Enhancer for Treatment of Cancers and Neurodegenerative Conditions Thereof” (Macau University of Science and Technology, priority 2013, published 2015).

Tested on: human normal liver cells (LO2)
Assay: MTT cytotoxicity assay, normal liver cells
Format: cell-based
Conditions: read-out: IC50, cytotoxic effect
Experimental: The test compound of N-desmethyldauricine was dissolved in DMSO at a final concentration of 100 mmol/L and stored at −20° C. Cytotoxicity was assessed using the 3-(4,5-dimethylthiazol-2-yl)-2,5-diphenyltetrazolium bromide assay as previously described^17. Cell number, 4000-8000 of HeLa (human cervical cancer), MCF-7 (human breast cancer), HepG2 (human liver cancer), Hep3B (human liver cancer), H1299 (human lung cancer), A549 (human lung cancer), PC3 (human prostate cancer), LLC-1 (mouse Lewis lung carcinoma) and LO2 (human normal liver) cells were seeded on 96-well plates per well, respectively. After overnight pre-incubation, the cells were exposed to different concentrations of N-desmethyldauricine (namely […], 0.039 μmol) for 3 days. Subsequently, 10 μL of MTT reagents was added to each well and incubated at 37° C. for 4 hours followed by the addition of 100 μL solubilization buffer (10% SDS in 0.01 mol/L HCl) and overnight incubation. Absorbance at 585 nm was determined from each well on the following day. The percentage of cell viability was calculated using the following formula: Cell viability (%)=Cells number treated/Cells number DMSO control×100. Data was obtained from three independent experiments.

## COc1cc2c(cc1OC)[C@@H](Cc1ccc(Oc3cc(C[C@H]4NCCc5cc(OC)c(OC)cc54)ccc3O)cc1)N(C)CC2 [N-desmethyldauricine]
  IC50: > 62.1 µM
